Data taken from publication PMC3524758, “Development and evaluation of a novel radioiodinated vesamicol analog as a sigma receptor imaging agent” (EJNMMI Research, 2012).

Legend:
sigma-1 receptor = target: T1, sigma-1 receptor (Rattus norvegicus, UniProt Q9R0C9); set-up: method as in PMID 15670917; settings: cited from earlier work
T1 construct: from tissue; host or cells: rat brain without cerebellum (male Sprague-Dawley rats)

sigma receptors = experiment: Blocking studies with excess sigma ligand in DU-145 tumor-bearing mice; format: in vivo; settings: 10 μmol/kg i.v. co-injection, 1-h post-injection
Procedure: At 1-h post-injection, the mice were killed, and biodistribution experiments were conducted as described above.

[1] = tested on: DU-145 prostate cancer cell lines; experiment: Cellular uptake and washout experiments in vitro; format: cell-based; settings: DU-145 cells
Procedure: Radiotracer uptake studies were performed in monolayer cultures of DU-145 prostate cancer cell lines, which were obtained from ATCC (Manassas, VA, USA). Cells were grown in cell culture dishes in RPMI 1640 medium with phenol red, 10% heat-inactivated fetal bovine serum (FBS), 100-μg/mL glutamine, 100-units/mL penicillin, and 100-μg/mL streptomycin at 37°C in a humidified atmosphere of 95% air and 5% carbon dioxide. Cells were plated on 6-well tissue culture plates (4 × 10^5 cells/well) for 24 h before the study and incubated at 37°C in the culture medium without FBS containing (+)-^125I]IV-OH or (+)-^125I]pIV (3.7 kBq/well), which was prepared by a method of a previous study for different time intervals (15, 30, 60, and 120 min). For the washout experiment, tumor cells exposed to a medium containing (+)-^125I]IV-OH or (+)-^125I]pIV for 60 min were washed with phosphate buffered saline (PBS) and incubated in fresh (nonradioactive) medium without FBS at 37°C for 15, 30, and 60 min. […] After incubation, cells were washed twice with ice-cold PBS and resolved by adding 0.5 mL of 1-M NaOH. The solutions were then collected and the radioactivity was determined with an auto well gamma counter (ARC-380; Aloka) and corrected for background radiation. The radioactivity of each sample was normalized for the protein level, which was determined using a Protein Assay Bicinchoninate Kit (Nacalai Tesque).

[2] = set-up: method as in PMID 19659515; settings: cited from earlier work

T1 sequence (Q9R0C9 whole entry): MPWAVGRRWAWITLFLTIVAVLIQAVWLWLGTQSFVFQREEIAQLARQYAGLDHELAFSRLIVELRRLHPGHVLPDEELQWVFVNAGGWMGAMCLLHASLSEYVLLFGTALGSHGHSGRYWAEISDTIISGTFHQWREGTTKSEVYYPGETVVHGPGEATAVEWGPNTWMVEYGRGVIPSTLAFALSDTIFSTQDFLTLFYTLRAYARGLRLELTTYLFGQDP

Row | effect of co-injected ligand on brain to blood uptake ratio of (+)-[^125I]IV-OH (sigma receptors) | effect of co-injected ligand on pancreas to blood uptake ratio of (+)-[^125I]IV-OH (sigma receptors) | effect of co-injected ligand on tumor to blood uptake ratio of (+)-[^125I]IV-OH (sigma receptors) | Compound | Ki (sigma-1 receptor) | time at which uptake was saturated [1] | accumulation in the presence of haloperidol ([1]; haloperidol 10 μM in culture medium) | intracellular radioactivity released into the supernatant ([1]; within 60 min after medium replacement, specific uptake) | log P [2]
1 | significant decrease | significant decrease | significant decrease | O[C@@H]1CCCCC1N1CCC(c2ccc(I)cc2)CC1 (single isomer, unassigned; (+)) [(+)-pIV, (+)-2-[4-(4-iodophenyl)piperidino]cyclohexanol] | 1.3 nM | – | – | – | –
2 | – | – | – | O[C@H]1CCCC[C@@H]1N1CCC(c2ccc([125I])cc2)CC1 [(+)-[^125I]pIV, reference compound] | – | 30 min | remarkably lessened | 44% | 2.08
